In patent US9850283B2, “Macrocyclic inhibitors of the PD-1/PD-L1 and CD80(B7-1)/PD-L1 protein/protein interactions” (BRISTOL-MYERS SQUIBB COMPANY, priority 2013, dated 2017):
Positions of bridges follow the written chain, without caps; N, C: chain ends. Non-standard residues stand in square brackets, D forms with d. Residues, ends and D or L forms follow the SMILES beside them. Phe(4-CH2NH2) = NCc1ccc(C[C@H](N)C(=O)O)cc1; 1Nal = N[C@@H](Cc1cccc2ccccc12)C(=O)O; NMeF = CN[C@@H](Cc1ccccc1)C(=O)O; NMeNle = CCCC[C@H](NC)C(=O)O; Sar = CNCC(=O)O

Tests used:
Human PD-L1/PD-1 = target: T1, Human PD-L1/PD-1 (Homo sapiens, UniProt Q9NZQ7); assay: HTRF PD-1-Ig/PD-L1-His binding assay (human PD-L1); details: cluster symbol; read-out: HTRF IC50 cluster
T1 construct: made in house; host or cells: HEK293T
T1 sequence (Q9NZQ7 with tags, fused parts or gaps): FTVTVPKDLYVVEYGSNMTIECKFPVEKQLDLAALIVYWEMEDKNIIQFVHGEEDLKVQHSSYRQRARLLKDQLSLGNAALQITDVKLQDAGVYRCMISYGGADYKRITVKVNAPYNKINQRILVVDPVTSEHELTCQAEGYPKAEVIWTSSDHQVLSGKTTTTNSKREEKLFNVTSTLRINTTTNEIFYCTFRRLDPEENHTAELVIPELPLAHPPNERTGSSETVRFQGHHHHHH
Outline: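 Interaction of Fc-tagged soluble PD-1 with His-tagged soluble PD-L1 is monitored by time-resolved FRET. Donor is europium cryptate anti-Ig (1 nM final) and acceptor is APC anti-His (20 nM final). Assay buffer is dPBS with 0.1% BSA and 0.05% Tween-20.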

[1] = target: T2, LK35.2-hPD-L1 cells / PE-labeled PD-1-Ig (Homo sapiens, UniProt Q9NZQ7); assay: LK35.2-hPD-L1 cell binding high-content screening assay; assay type: cell-based; details: cell binding assay, cell line not given; cluster symbol; read-out: CBA IC50 cluster
T2 construct: expressed in transfected cells; host or cells: LK35.2 mouse B cell line
T2 sequence (Q9NZQ7 19-290): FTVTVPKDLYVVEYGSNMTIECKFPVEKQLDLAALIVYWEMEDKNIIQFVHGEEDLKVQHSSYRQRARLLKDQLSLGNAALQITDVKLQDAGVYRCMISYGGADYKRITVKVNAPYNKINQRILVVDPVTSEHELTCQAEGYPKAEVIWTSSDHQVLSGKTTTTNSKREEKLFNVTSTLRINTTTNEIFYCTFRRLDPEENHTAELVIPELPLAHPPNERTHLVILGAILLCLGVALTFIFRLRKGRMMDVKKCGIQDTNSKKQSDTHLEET
Outline: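 Fluorescent PD-1-Ig binding to PD-L1-expressing LK35.2 cells, imaged after washing. Conditions: 1 nM PE-PD-1-Ig, 37 °C, 1 h, RPMI with 10% fetal calf serum.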

Row | SMILES | IC50 (Human PD-L1/PD-1) [nM] | IC50 [1] [nM]
1 | CCCC[C@H]1C(=O)N(C)CC(=O)N[C@@H](CC(=O)O)C(=O)N[C@@H](Cc2ccc(O)cc2)C(=O)N(C)[C@@H](Cc2ccccc2)C(=O)N[C@@H](Cc2ccc(O)cc2)C(=O)N(C)CC(=O)N[C@@H](Cc2c[nH]c3ccccc23)C(=O)N[C@@H](Cc2ccc(O)cc2)C(=O)N[C@@H](CC(C)C)C(=O)N[C@H](C(=O)NCC(N)=O)CSCC(=O)N[C@@H](Cc2ccccc2)C(=O)N(C)[C@@H](Cc2ccccc2)C(=O)N1C [Example 3503] (HELM PEPTIDE1{[O=C(C[*:3])[*:2]].F.[meF].[CCCC[C@@H](C(=O)[*:2])N(C)[*:1]].[Sar].D.Y.[meF].Y.[Sar].W.Y.L.C.G.[am]}$PEPTIDE1,PEPTIDE1,1:R3-14:R3$$$V2.0) | > 30.5 | > 74.3
2 | CCCC[C@H]1C(=O)N(C)CC(=O)N[C@@H](CC(=O)O)C(=O)N[C@@H](C(C)C)C(=O)N[C@@H](Cc2ccc(O)cc2)C(=O)N[C@@H](Cc2ccc(O)cc2)C(=O)N(C)CC(=O)N[C@@H](Cc2c[nH]c3ccccc23)C(=O)N[C@@H](Cc2ccc(O)cc2)C(=O)N[C@@H](CC(C)C)C(=O)N[C@H](C(=O)NCC(N)=O)CSCC(=O)N[C@@H](Cc2ccccc2)C(=O)N(C)[C@@H](Cc2ccccc2)C(=O)N1C [Example 3504] (HELM PEPTIDE1{[O=C(C[*:3])[*:2]].F.[meF].[CCCC[C@@H](C(=O)[*:2])N(C)[*:1]].[Sar].D.V.Y.Y.[Sar].W.Y.L.C.G.[am]}$PEPTIDE1,PEPTIDE1,1:R3-14:R3$$$V2.0) | > 30.5 | > 74.3
3 | CCCC[C@H]1C(=O)N(C)CC(=O)N[C@@H](CC(=O)O)C(=O)N[C@@H](C(C)C)C(=O)N(C)[C@@H](Cc2ccccc2)C(=O)N[C@@H](CC(C)C)C(=O)N(C)CC(=O)N[C@@H](Cc2c[nH]c3ccccc23)C(=O)N[C@@H](Cc2ccc(O)cc2)C(=O)N[C@@H](CC(C)C)C(=O)N[C@H](C(=O)NCC(N)=O)CSCC(=O)N[C@@H](Cc2ccccc2)C(=O)N(C)[C@@H](Cc2ccccc2)C(=O)N1C [Example 3505] (HELM PEPTIDE1{[O=C(C[*:3])[*:2]].F.[meF].[CCCC[C@@H](C(=O)[*:2])N(C)[*:1]].[Sar].D.V.[meF].L.[Sar].W.Y.L.C.G.[am]}$PEPTIDE1,PEPTIDE1,1:R3-14:R3$$$V2.0) | 6.76 to 30.3 | 4.78 to 72.9
4 | CCCC[C@H]1C(=O)N(C)CC(=O)N[C@@H](CC(=O)O)C(=O)N[C@@H](C(C)C)C(=O)N(C)[C@@H](Cc2ccccc2)C(=O)N[C@@H](CCCNC(=N)N)C(=O)N(C)CC(=O)N[C@@H](Cc2c[nH]c3ccccc23)C(=O)N[C@@H](Cc2ccc(O)cc2)C(=O)N[C@@H](CC(C)C)C(=O)N[C@H](C(=O)NCC(N)=O)CSCC(=O)N[C@@H](Cc2ccccc2)C(=O)N(C)[C@@H](Cc2ccccc2)C(=O)N1C [Example 3506] (HELM PEPTIDE1{[O=C(C[*:3])[*:2]].F.[meF].[CCCC[C@@H](C(=O)[*:2])N(C)[*:1]].[Sar].D.V.[meF].R.[Sar].W.Y.L.C.G.[am]}$PEPTIDE1,PEPTIDE1,1:R3-14:R3$$$V2.0) | 0.385 to 6.74 | 4.78 to 72.9
5 | CCCC[C@H]1C(=O)N(C)CC(=O)N[C@@H](CC(=O)O)C(=O)N[C@@H](C(C)C)C(=O)N(C)[C@@H](Cc2ccccc2)C(=O)N[C@@H](CCC(=O)O)C(=O)N(C)CC(=O)N[C@@H](Cc2c[nH]c3ccccc23)C(=O)N[C@@H](Cc2ccc(O)cc2)C(=O)N[C@@H](CC(C)C)C(=O)N[C@H](C(=O)NCC(N)=O)CSCC(=O)N[C@@H](Cc2ccccc2)C(=O)N(C)[C@@H](Cc2ccccc2)C(=O)N1C [Example 3507] (HELM PEPTIDE1{[O=C(C[*:3])[*:2]].F.[meF].[CCCC[C@@H](C(=O)[*:2])N(C)[*:1]].[Sar].D.V.[meF].E.[Sar].W.Y.L.C.G.[am]}$PEPTIDE1,PEPTIDE1,1:R3-14:R3$$$V2.0) | 6.76 to 30.3 | > 74.3
6 | CCCC[C@H]1C(=O)N(C)CC(=O)N[C@@H](CC(=O)O)C(=O)N[C@@H](C(C)C)C(=O)N(C)[C@@H](Cc2ccccc2)C(=O)N[C@@H](Cc2ccc(O)cc2)C(=O)N(C)CC(=O)N[C@@H](Cc2c[nH]c3ccccc23)C(=O)N[C@@H](Cc2ccc(O)cc2)C(=O)N[C@@H](CCCNC(=N)N)C(=O)N[C@H](C(=O)NCC(N)=O)CSCC(=O)N[C@@H](Cc2ccccc2)C(=O)N(C)[C@@H](Cc2ccccc2)C(=O)N1C [Example 3508] (HELM PEPTIDE1{[O=C(C[*:3])[*:2]].F.[meF].[CCCC[C@@H](C(=O)[*:2])N(C)[*:1]].[Sar].D.V.[meF].Y.[Sar].W.Y.R.C.G.[am]}$PEPTIDE1,PEPTIDE1,1:R3-14:R3$$$V2.0) | 0.385 to 6.74 | 4.78 to 72.9
7 | CCCC[C@H]1C(=O)N(C)CC(=O)N[C@@H](CC(=O)O)C(=O)N[C@@H](C(C)C)C(=O)N(C)[C@@H](Cc2ccccc2)C(=O)N[C@@H](Cc2ccc(O)cc2)C(=O)N(C)CC(=O)N[C@@H](Cc2c[nH]c3ccccc23)C(=O)N[C@@H](Cc2ccc(O)cc2)C(=O)N[C@@H](CCC(=O)O)C(=O)N[C@H](C(=O)NCC(N)=O)CSCC(=O)N[C@@H](Cc2ccccc2)C(=O)N(C)[C@@H](Cc2ccccc2)C(=O)N1C [Example 3509] (HELM PEPTIDE1{[O=C(C[*:3])[*:2]].F.[meF].[CCCC[C@@H](C(=O)[*:2])N(C)[*:1]].[Sar].D.V.[meF].Y.[Sar].W.Y.E.C.G.[am]}$PEPTIDE1,PEPTIDE1,1:R3-14:R3$$$V2.0) | 6.76 to 30.3 | > 74.3
8 | CCCCC1C(=O)N[C@@H](CCCNC(=N)N)C(=O)N[C@@H](CC(=O)O)C(=O)N[C@@H](C(C)C)C(=O)N(C)[C@@H](Cc2ccccc2)C(=O)N[C@@H](Cc2ccc(O)cc2)C(=O)N(C)CC(=O)N[C@@H](Cc2c[nH]c3ccccc23)C(=O)N[C@@H](Cc2ccc(O)cc2)C(=O)N[C@@H](CC(C)C)C(=O)N[C@H](C(=O)NCC(N)=O)CSCC(=O)N[C@@H](Cc2ccccc2)C(=O)N(C)[C@@H](Cc2ccccc2)C(=O)N1C (some centres unmarked) [Example 3510] (HELM PEPTIDE1{[O=C(C[*:3])[*:2]].F.[meF].[CCCCC(C(=O)[*:2])N(C)[*:1]].R.D.V.[meF].Y.[Sar].W.Y.L.C.G.[am]}$PEPTIDE1,PEPTIDE1,1:R3-14:R3$$$V2.0) | > 30.5 | > 74.3
9 | CCCC[C@H]1C(=O)N(C)CC(=O)N[C@@H](CC(=O)O)C(=O)N[C@@H](C(C)C)C(=O)N(C)[C@@H](Cc2ccccc2)C(=O)N[C@@H](Cc2ccc(O)cc2)C(=O)N(C)[C@@H](Cc2ccc(O)cc2)C(=O)N[C@@H](Cc2c[nH]c3ccccc23)C(=O)N[C@@H](Cc2ccc(O)cc2)C(=O)N[C@@H](CC(C)C)C(=O)N[C@H](C(=O)NCC(N)=O)CSCC(=O)N[C@@H](Cc2ccccc2)C(=O)N(C)[C@@H](Cc2ccccc2)C(=O)N1C [Example 3511] (HELM PEPTIDE1{[O=C(C[*:3])[*:2]].F.[meF].[CCCC[C@@H](C(=O)[*:2])N(C)[*:1]].[Sar].D.V.[meF].Y.[meY].W.Y.L.C.G.[am]}$PEPTIDE1,PEPTIDE1,1:R3-14:R3$$$V2.0) | > 30.5 | 4.78 to 72.9
10 | CCCC[C@H]1C(=O)N(C)CC(=O)N[C@@H](CC(=O)O)C(=O)N[C@@H](C(C)C)C(=O)N(C)[C@@H](Cc2ccccc2)C(=O)N[C@@H](Cc2ccc(O)cc2)C(=O)N(C)[C@@H](CCC(=O)O)C(=O)N[C@@H](Cc2c[nH]c3ccccc23)C(=O)N[C@@H](Cc2ccc(O)cc2)C(=O)N[C@@H](CC(C)C)C(=O)N[C@H](C(=O)NCC(N)=O)CSCC(=O)N[C@@H](Cc2ccccc2)C(=O)N(C)[C@@H](Cc2ccccc2)C(=O)N1C [Example 3512] (HELM PEPTIDE1{[O=C(C[*:3])[*:2]].F.[meF].[CCCC[C@@H](C(=O)[*:2])N(C)[*:1]].[Sar].D.V.[meF].Y.[meE].W.Y.L.C.G.[am]}$PEPTIDE1,PEPTIDE1,1:R3-14:R3$$$V2.0) | 0.385 to 6.74 | 4.78 to 72.9
11 | CCCC[C@H]1C(=O)N(C)CC(=O)N[C@@H](CC(=O)O)C(=O)N[C@@H](C(C)C)C(=O)N(C)[C@@H](Cc2ccccc2)C(=O)N[C@@H](Cc2ccc(O)cc2)C(=O)N(C)CC(=O)N[C@@H](Cc2ccc(CN)cc2)C(=O)N[C@@H](Cc2ccc(O)cc2)C(=O)N[C@@H](CC(C)C)C(=O)N[C@H](C(=O)NCC(N)=O)CSCC(=O)N[C@@H](Cc2ccccc2)C(=O)N(C)[C@@H](Cc2ccccc2)C(=O)N1C [Example 3513] ({CH2CO}-F[NMeF][NMeNle][Sar]DV[NMeF]Y[Sar][Phe(4-CH2NH2)]YLCG-NH2; thioether N-13) | > 30.5 | > 74.3
12 | CCCC[C@H]1C(=O)N(C)CC(=O)N[C@@H](CC(=O)O)C(=O)N[C@@H](C(C)C)C(=O)N(C)[C@@H](Cc2ccccc2)C(=O)N[C@@H](Cc2ccc(O)cc2)C(=O)N(C)CC(=O)N[C@@H](Cc2c[nH]c3ccccc23)C(=O)N[C@@H](Cc2ccc(CN)cc2)C(=O)N[C@@H](CC(C)C)C(=O)N[C@H](C(=O)NCC(N)=O)CSCC(=O)N[C@@H](Cc2ccccc2)C(=O)N(C)[C@@H](Cc2ccccc2)C(=O)N1C [Example 3514] ({CH2CO}-F[NMeF][NMeNle][Sar]DV[NMeF]Y[Sar]W[Phe(4-CH2NH2)]LCG-NH2; thioether N-13) | 6.76 to 30.3 | 4.78 to 72.9
13 | CCCC[C@H]1C(=O)N(C)CC(=O)N[C@@H](CC(=O)O)C(=O)N[C@@H](C(C)C)C(=O)N(C)[C@@H](Cc2ccccc2)C(=O)N[C@@H](Cc2ccc(O)cc2)C(=O)N(C)CC(=O)N[C@@H](Cc2cccc3ccccc23)C(=O)N[C@@H](Cc2ccc(O)cc2)C(=O)N[C@@H](CC(C)C)C(=O)N[C@H](C(=O)NCC(N)=O)CSCC(=O)N[C@@H](Cc2ccccc2)C(=O)N(C)[C@@H](Cc2ccccc2)C(=O)N1C [Example 3515] ({CH2CO}-F[NMeF][NMeNle][Sar]DV[NMeF]Y[Sar][1Nal]YLCG-NH2; thioether N-13) | 6.76 to 30.3 | 4.78 to 72.9
